For 20 compounds, T/C results are on record in PubChem BioAssay AID248 (DTP/NCI, 2004).

In this assay the test system is L1210 leukemia ip in BDF1 mice, survival T/C. Kind of assay: NCI In Vivo Anticancer Drug Screen. Data for tumor model L1210 Leukemia (intraperitoneal) in B6D2F1 (BDF1) mice. The note with it: endpoint: mean survival time, higher = longer survival. The gist of the method:
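Read-out is survival time, reported as the treated-group measurement over the vehicle-control measurement.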

Where [1] appears, read: dose: 100.0 mg/kg/injection, schedule: Q04DX002 (ip), vehicle: Klucel (hydroxypropylcellulose) (HPC).
The mark [2] stands for this setting: dose: 200.0 mg/kg/injection, schedule: Q04DX002 (ip), vehicle: Klucel (hydroxypropylcellulose) (HPC).
The mark [3] stands for this setting: dose: 400.0 mg/kg/injection, schedule: Q04DX002 (ip), vehicle: Klucel (hydroxypropylcellulose) (HPC).
The mark [4] stands for this setting: dose: 100.0 mg/kg/injection, schedule: Q01DX009 (ip), vehicle: saline with Tween-80.
The mark [5] stands for this setting: dose: 200.0 mg/kg/injection, schedule: Q01DX009 (ip), vehicle: saline with Tween-80.
[6] abbreviates: dose: 400.0 mg/kg/injection, schedule: Q01DX009 (ip), vehicle: saline with Tween-80.
Setting [7] is: dose: 100.0 mg/kg/injection, schedule: Q04DX003 (ip), vehicle: saline with Tween-80.
Setting [8] is: dose: 100.0 mg/kg/injection, schedule: Q01DX001 (ip), vehicle: saline.
[9] abbreviates: dose: 200.0 mg/kg/injection, schedule: Q01DX001 (ip), vehicle: saline.
The mark [10] stands for this setting: dose: 100.0 mg/kg/injection, schedule: Q01DX001 (ip), vehicle: Klucel (hydroxypropylcellulose) (HPC).
The mark [11] stands for this setting: dose: 200.0 mg/kg/injection, schedule: Q01DX001 (ip), vehicle: Klucel (hydroxypropylcellulose) (HPC).
The mark [12] stands for this setting: dose: 100.0 mg/kg/injection, schedule: Q01DX009 (ip), vehicle: Klucel (hydroxypropylcellulose) (HPC).
Where [13] appears, read: dose: 100.0 mg/kg/injection, schedule: Q04DX003 (ip), vehicle: Klucel (hydroxypropylcellulose) (HPC).
Where [14] appears, read: dose: 200.0 mg/kg/injection, schedule: Q01DX009 (ip), vehicle: Klucel (hydroxypropylcellulose) (HPC).
The mark [15] stands for this setting: dose: 200.0 mg/kg/injection, schedule: Q04DX003 (ip), vehicle: Klucel (hydroxypropylcellulose) (HPC).
The mark [16] stands for this setting: dose: 400.0 mg/kg/injection, schedule: Q04DX003 (ip), vehicle: Klucel (hydroxypropylcellulose) (HPC).
The mark [17] stands for this setting: dose: 400.0 mg/kg/injection, schedule: Q01DX001 (ip), vehicle: saline.
Where [18] appears, read: dose: 400.0 mg/kg/injection, schedule: Q01DX009 (ip), vehicle: Klucel (hydroxypropylcellulose) (HPC).

Values joined by “and” are separate entries in the source; they are usually repeats but may differ in a detail not shown here. Equal values may be shown once. Toxic doses and inconclusive results are not listed.

For `O=C(O)c1ccc2ccccc2c1C(=O)c1ccc(F)cc1`, the T/C under setting [1] is 101 % of control; the T/C (dose: 100.0 mg/kg/injection, schedule: Q04DX003 (ip), vehicle: other) is 113 % of control; the T/C under setting [2] was 96 % of control; the T/C (dose: 200.0 mg/kg/injection, schedule: Q04DX003 (ip), vehicle: other) was 97 % of control; the T/C under setting [3] was 92 % of control; the T/C (dose: 400.0 mg/kg/injection, schedule: Q04DX003 (ip), vehicle: other) is 97 % of control.

With `O=S(=O)(Nc1c(O)ccc2ccccc12)c1ccccc1`, the T/C is 95 % of control under setting [4], 93 % of control under setting [5] and 90 % of control under setting [6].

For `CCCCCCCCCCCCOc1ccc(C)cc1`, the T/C is 97 % of control under setting [4]; 88 % of control under setting [7]; 93 % of control under setting [5]; 88 % of control (dose: 200.0 mg/kg/injection, schedule: Q04DX003 (ip), vehicle: saline with Tween-80); 97 % of control under setting [6]; 93 % of control (dose: 400.0 mg/kg/injection, schedule: Q04DX003 (ip), vehicle: saline with Tween-80).

As to `Nc1nc(=S)c2ncn(CN3CCCCC3)c2[nH]1`, the T/C runs as follows: (dose: 1.3 mg/kg/injection, schedule: Q01DX Z (ip), vehicle: carboxymethylcellulose (CMC)) 112 % of control; (dose: 2.0 mg/kg/injection, schedule: Q01DX Z (ip), vehicle: carboxymethylcellulose (CMC)) 123 % of control; (dose: 3.0 mg/kg/injection, schedule: Q01DX Z (ip), vehicle: carboxymethylcellulose (CMC)) 154 % of control; (dose: 3.0 mg/kg/injection, schedule: Q01DX Z (ip), vehicle: saline) 155 % of control; (dose: 4.5 mg/kg/injection, schedule: Q01DX Z (ip), vehicle: carboxymethylcellulose (CMC)) 151 % of control; (dose: 4.5 mg/kg/injection, schedule: Q01DX Z (ip), vehicle: saline) 166 % of control. The T/C (dose: 7.0 mg/kg/injection, schedule: Q01DX Z (ip), vehicle: saline) is 156 % of control and the T/C (dose: 10.0 mg/kg/injection, schedule: Q01DX Z (ip), vehicle: saline) was 156 % of control.

For the compound `O=C1C2=C(CCC2)c2ccccc21`, the T/C was 103 % of control under setting [8] and 96 % of control under setting [9].

Consider `CC(=O)Nc1ccc(/C=C/c2ccc3ccccc3[n+]2C)cc1`, for which the T/C reads like this: (dose: 25.0 mg/kg/injection, schedule: Q01DX009 (ip), vehicle: saline with Tween-80) 97 % of control; (dose: 25.0 mg/kg/injection, schedule: Q04DX003 (ip), vehicle: saline with Tween-80) 101 % of control; (dose: 50.0 mg/kg/injection, schedule: Q01DX009 (ip), vehicle: saline with Tween-80) 106 % of control; (dose: 50.0 mg/kg/injection, schedule: Q04DX003 (ip), vehicle: saline with Tween-80) 98 % of control; under setting [7], 94 % of control.

For the compound `COS(=O)c1ccccc1C(=O)NOCc1ccccc1` (stereo not given), the T/C by setting is: (dose: 50.0 mg/kg/injection, schedule: Q01DX001 (ip), vehicle: Klucel (hydroxypropylcellulose) (HPC)) 103 % of control; under setting [10], 100 % of control; under setting [11], 107 % of control.

For the compound `O=CNC(CSC(=O)c1ccccc1)C(=O)O` (stereo not given), the T/C reads like this: under setting [12], 101 % of control; under setting [13], 97 % of control; under setting [14], 101 % of control; under setting [15], 97 % of control; under setting [16], 94 % of control.

For `O=C1CCC(=O)N1c1ccccc1`, the T/C is, setting by setting: under setting [1], 96 % of control; under setting [2], 92 % of control; under setting [3], 92 % of control.

`Cc1c(C)c(O)c(SC(CC(=O)O)C(=O)O)c(C)c1O` (stereo not given): the T/C reads like this: under setting [1], 100 % of control; under setting [13], 103 % of control; under setting [2], 103 % of control; under setting [15], 103 % of control; under setting [3], 97 % of control; under setting [16], 90 % of control.

As to `CC(=O)CC(C)(C)S(=O)(=O)O`, the T/C is, setting by setting: under setting [8], 100 % of control; under setting [9], 100 % of control; under setting [17], 100 % of control.

For the compound `O=C(C[n+]1cccc(/C=N\O)c1)c1ccc(-c2ccc(C(=O)C[n+]3cccc(/C=N\O)c3)cc2)cc1`, the T/C was 97 % of control (dose: 1.5 mg/kg/injection, schedule: Q01DX009 (ip), vehicle: Klucel (hydroxypropylcellulose) (HPC)); 102 % of control (dose: 2.5 mg/kg/injection, schedule: Q01DX009 (ip), vehicle: Klucel (hydroxypropylcellulose) (HPC)); 97 % of control (dose: 3.0 mg/kg/injection, schedule: Q01DX009 (ip), vehicle: Klucel (hydroxypropylcellulose) (HPC)); 97 % of control (dose: 4.0 mg/kg/injection, schedule: Q01DX009 (ip), vehicle: Klucel (hydroxypropylcellulose) (HPC)); 94 % of control and 102 % of control (dose: 6.0 mg/kg/injection, schedule: Q01DX009 (ip), vehicle: Klucel (hydroxypropylcellulose) (HPC)); 92 % of control (dose: 9.0 mg/kg/injection, schedule: Q01DX009 (ip), vehicle: Klucel (hydroxypropylcellulose) (HPC)). The T/C runs as follows: (dose: 12.0 mg/kg/injection, schedule: Q01DX009 (ip), vehicle: Klucel (hydroxypropylcellulose) (HPC)) 98 % of control; (dose: 12.5 mg/kg/injection, schedule: Q01DX009 (ip), vehicle: Klucel (hydroxypropylcellulose) (HPC)) 111 % of control.

For the compound `COc1c(C)cccc1[N+](=O)[O-]`, the T/C is 104 % of control under setting [12]; 98 % of control under setting [13]; 101 % of control under setting [14]; 104 % of control under setting [15]; 101 % of control under setting [18]; 101 % of control under setting [16].

In the case of `NCCCC(=S)S`, the T/C by setting is: (dose: 100.0 mg/kg/injection, schedule: Q04DX002 (ip), vehicle: saline) 95 % of control; (dose: 200.0 mg/kg/injection, schedule: Q04DX002 (ip), vehicle: saline) 96 % of control and 103 % of control; (dose: 400.0 mg/kg/injection, schedule: Q04DX002 (ip), vehicle: saline) 96 % of control and 116 % of control.

For the compound `O=C(N/N=C/C=C/c1ccccc1)c1ccccc1O`, the T/C is 92 % of control under setting [12], 89 % of control under setting [14] and 95 % of control under setting [18].

For the compound `CCOc1ccc(N(O)C(C)=O)cc1`, the T/C is 91 % of control (dose: 100.0 mg/kg/injection, schedule: Q04DX003 (ip), vehicle: saline); 100 % of control (dose: 200.0 mg/kg/injection, schedule: Q04DX003 (ip), vehicle: saline); 96 % of control (dose: 400.0 mg/kg/injection, schedule: Q04DX003 (ip), vehicle: saline).

Regarding `COP(=O)(NC(C)=O)OC`, the T/C (dose: 100.0 mg/kg/injection, schedule: Q04DX002 (ip), vehicle: saline with Tween-80) was 108 % of control; the T/C (dose: 200.0 mg/kg/injection, schedule: Q04DX002 (ip), vehicle: saline with Tween-80) was 102 % of control; the T/C (dose: 400.0 mg/kg/injection, schedule: Q04DX002 (ip), vehicle: saline with Tween-80) is 150 % of control.

Take `Nc1ccc(C(=O)Nc2cccc(S(=O)(=O)F)c2)cc1`: the T/C by setting is: under setting [8], 107 % of control; under setting [9], 106 % of control; under setting [17], 90 % of control.

In the case of `Cc1cc2c(cc1C)C1(c3ccc(Cl)cc3)OC2(c2ccc(Cl)cc2)C2C(=O)OC(=O)C21` (stereo not given), the T/C by setting is: under setting [10], 94 % of control; under setting [11], 92 % of control; (dose: 400.0 mg/kg/injection, schedule: Q01DX001 (ip), vehicle: Klucel (hydroxypropylcellulose) (HPC)) 97 % of control.

Take `CN(N)C(=O)Nc1ccc(Br)cc1`: the T/C (dose: 75.0 mg/kg/injection, schedule: Q01DX001 (ip), vehicle: carboxymethylcellulose (CMC)) is 104 % of control; the T/C (dose: 150.0 mg/kg/injection, schedule: Q01DX001 (ip), vehicle: carboxymethylcellulose (CMC)) is 100 % of control; the T/C (dose: 300.0 mg/kg/injection, schedule: Q01DX001 (ip), vehicle: carboxymethylcellulose (CMC)) is 98 % of control.
